Paper PMC4912613, “A broad analysis of resistance development in the malaria parasite” (Nature Communications, 2016)
pEC50: −log10 of the molar value. Read-outs that look alike come from different tables or passages of the source.

How the values were obtained:
[1] = system: Dd2; assay: Cross-resistance EC50 assay, Dd2 parent; assay type: cell-based, Plasmodium falciparum; settings: Plasmodium falciparum; for EC50: read-out: Dd2 (PARENT) EC50 (µM) Average EC50
From the text: (§1) Multidrug resistance alleles, including mutations in P. falciparum chloroquine resistance transporter (pfcrt) and P. falciparum multi-drug resistance transporter 1 (pfmdr1) are very common in field isolates. Therefore, we sought to assess the degree to which pre-existing resistance alleles would contribute to a loss of potency for this diverse collection of small molecule compounds. Fifteen clones derived from three main parent lines were chosen to maximize diversity in mutated pathways and genetic backgrounds, thus representing the variety of resistance seen in the field: 3D7 (ref. [23]), W2 (ref. [24]) or Dd2 (ref. [25]). The 3D7 line originates from the clone of a Netherlands clinical isolate strain[23][26] and is generally considered to be drug sensitive, though it does convey resistance to sulfadoxine. Conversely, W2 (ref. [24], [27]) and Dd2 (ref. [25]) are multi-drug-resistant lines originating from the Indochina III/CDC isolate, which contain point mutations in pfcrt as well as amplifications in pfmdr1 and GTP cyclohydrolase.
To evaluate potential overlapping activity against known antimalarial drug targets, we performed dose-response studies with each compound against our assembled set of drug-resistant lines and their corresponding parents, in an asexual blood stage proliferation assay (Table 1). Comparisons were made to the drug-sensitive strain 3D7 when a parent was unavailable (TM90C2A, W2 and Dd2). As laboratories conducted EC50 assays with different strains and protocols, all comparisons were made between assays from the same laboratory and under the same assay conditions. Compounds displaying >5-fold EC50 shifts relative to the parent or sensitive strain were flagged as having potentially non-novel targets. Average fold shifts per strain ranged from 0.82 to 2.34, with a median of 1.23 indicating there was not common resistance to any one resistant clone. No resistance patterns were observed when classifying the compounds based on chemical structure, but this was not surprising given the diversity of compounds chosen. On the other hand, given that these confirmed compounds were derived from larger unconfirmed hit lists to which some filtration criteria may have been applied (for example, elimination of obvious dihydrofolate reductase inhibitors[32]), some[10][11][12][13] pre-existing bias may exist in the set. […]
Alternatively, a SYBR Green-based proliferation approach was used for the 72-h assay, as previously described. Briefly, a culture of either synchronized or asynchronous parasitized RBCs (0.3% parasitemia and 4% haematocrit) in screening medium (identical to supplemented medium above except no serum was added) was exposed to serial drug dilutions. Plates were incubated at 37 °C and gassed with 93% N2, 4% CO2 and 3% O2 for 72 h. Following incubation, 10 × SYBR Green I (Invitrogen; supplied in 10,000 × concentration) in lysis buffer ([…], 5 mM EDTA, 0.16% Saponin wt per vol and 1.6% Triton X vol per vol) was added to the wells and the plates were incubated overnight at room temperature before plate reading. EC50 assays were repeated three times, taking the average EC50 value from each assay set, and removing any outliers using a single iteration of Grubbs' test, eliminating values with z-scores above the critical z-value (α=0.05). The raw EC50 values for synchronized parasites assayed in a 384-well format are listed in Supplementary Data 4. The raw EC50 values for asynchronous parasites assayed in a 96 or 1536-well format are listed in Supplementary Data 5.
EC50 values for each strain were compared with those of the corresponding parent strain to determine fold-shift changes and identify resistance. To minimize the cause variance between assays, all comparisons were conducted between strains assayed under identical conditions. A one-way ANOVA followed by a Dunnet's post-test was conducted in GraphPad Prism to identify significant changes between the parent and resistant strain.

[2] = system: 3D7; assay: Cross-resistance EC50 assay, 3D7 parent / sensitive strain; assay type: cell-based; settings: Plasmodium falciparum; for EC50: asynchronized parasites, 96-well or 1536-well format, read-out: 3D7 (PARENT) EC50 (µM) Average EC50; for pEC50: synchronized parasites
From the text: as §1
(§2) To evaluate potential overlapping activity against known antimalarial drug targets, we performed dose-response studies with each compound against our assembled set of drug-resistant lines and their corresponding parents, in an asexual blood stage proliferation assay (Table 1). Comparisons were made to the drug-sensitive strain 3D7 when a parent was unavailable (TM90C2A, W2 and Dd2). As laboratories conducted EC50 assays with different strains and protocols, all comparisons were made between assays from the same laboratory and under the same assay conditions. Compounds displaying >5-fold EC50 shifts relative to the parent or sensitive strain were flagged as having potentially non-novel targets. Average fold shifts per strain ranged from 0.82 to 2.34, with a median of 1.23 indicating there was not common resistance to any one resistant clone. No resistance patterns were observed when classifying the compounds based on chemical structure, but this was not surprising given the diversity of compounds chosen. On the other hand, given that these confirmed compounds were derived from larger unconfirmed hit lists to which some filtration criteria may have been applied (for example, elimination of obvious dihydrofolate reductase inhibitors[32]), some[10][11][12][13] pre-existing bias may exist in the set.
(§3) The 48-h assay was carried out in a 96-well format following standard methods using the ^3H-hypoxanthine incorporation assay. The raw EC50 values corresponding to this assay can be found in Supplementary Data 3. Briefly, this assay relies on the parasite incorporation of labelled hypoxanthine that is proportional to P. falciparum growth. A culture of parasitized RBCs (0.5% parasitemia with a percentage of ring stage higher than 70% of total parasitemia, 2.0% haematocrit) in RPMI-1640, […] and 5 μM hypoxanthine was exposed to drug serial dilutions. Plates were incubated for 24 h at 37 °C, 5% CO2, 5% O2 and 90% N2. After 24 h of incubation, ^3H-hypoxanthine was added and plates were incubated for an additional 24-h period. After that, parasites were harvested on a glass fibre filter using a TOMTEC Cell Harvester 96. Filters were dried and melt-on scintillator sheets were used to determine the incorporation of ^3H-hypoxanthine. Radioactivity was measured using a microbeta counter. Data were normalized using the incorporation of the positive (parasitized RBCs without drug) and negative (same culture with artesunate at 2 μM) controls. All assays were conducted in triplicate using three independently grown cultures, and EC50 values were determined using the XLfit add-in module for Excel (version 2.3.1) from Grafit (version 5.3.1.3), where parameter h is the assay hill slope, x is the compound concentration and y is the inhibition of growth effect. The XLfit equation is: […]
(§4) Alternatively, a SYBR Green-based proliferation approach was used for the 72-h assay, as previously described. […]

[3] = system: W2; assay: Cross-resistance EC50 assay, W2 parent; assay type: cell-based, Plasmodium falciparum; settings: Plasmodium falciparum, 48 h, read-out: W2F6 (PARENT) Average EC50
From the text: as §1, §2, §3, §4

[4] = DD2, 72 h, read-out: Dd2 (PARENT) Average EC50
[5] = SYBR green 72 hour assay, 3D7 parent
[6] = SYBR green 72 hour assay, 384-well format, strain 3D7 (parent), read-out: 3D7 (PARENT) Average EC50
[7] = hypoxanthine 48-hour assay, 96-well format, strain 3D7 (parent), read-out: 3D7 (PARENT) Average EC50
[8] = hypoxanthine 48-hour assay, 96-well format, strain 3D7-C9-WT (parent of PfATP4 Mut3), read-out: 3D7-C9-WT (PARENT) Average EC50

Row | SMILES | pEC50 [1, 4] | EC50 ([1]; DD2, 72 h) [µM] | EC50 [2, 5] [µM] | pEC50 ([2]; SYBR green 72 hour assay, 384-well format, 3D7 parent, read-out: 3D7 (PARENT) Average EC50) | pEC50 [3] | pEC50 [2, 6] | pEC50 [2, 7] | pEC50 [2, 8] | pEC50 ([1]; DD2, read-out: EC50, Dd2 parent)
1 | COc1ccc(NC(=O)N2CCCCN3[C@H](CN)[C@H](c4ccc(C#Cc5ccccc5)cc4)[C@@H]3C2)cc1 [BRD1095] | 7.89 | 0.00257 | 0.00215 | 7.66 | – | – | – | – | –
2 | CCN(CC)CCn1c(=N)n(CC(O)c2ccc(Cl)c(Cl)c2)c2ccccc21.Cl (stereo not shown) [MMV000248] | 6.37 | 0.413 | 0.138 | – | 6.22 | 6.63 | 6.51 | 6.40 | –
3 | CCOc1cc2c(cc1OCC)C(c1cc(Cl)ccc1O)NCC2 (stereo not shown) [MMV000478] | 6.10 | 0.843 | 0.613 | – | 6.76 | 5.73 | 5.97 | 5.89 | –
4 | CCCOCc1cc(CN2CCN(c3cccc(Cl)c3)CC2)c(O)c2ncccc12 [MMV000787] | 6.23 | 1.59 | 0.645 | – | 6.10 | 6.20 | 5.84 | 6.03 | –
5 | CN1CCN(c2ccc(Nc3c4ccccc4nc4ccccc34)cc2)CC1 [MMV006172] | 6.77 | 0.298 | 0.126 | – | 6.64 | 7.34 | 7.05 | 7.01 | –
6 | CCCN(CCC)CC(O)COc1ccccc1C(=O)Nc1ccccc1 (stereo not shown) [MMV006455] | 5.92 | 0.408 | 0.148 | – | 6.97 | 5.62 | 6.28 | – | –
7 | COc1cc2cc(C(=O)Nc3ccccc3)c(N)nc2cc1OC [MMV006767] | 5.80 | 0.215 | 1.51 | – | 5.74 | 6.12 | 6.02 | 6.13 | –
8 | Cc1cc(Nc2ccc(OCc3ccccc3)cc2)nc2cc(O)ccc12 [MMV007181] | 6.73 | 0.19 | 0.086 | – | 7.47 | 6.82 | 6.46 | 6.74 | –
9 | Brc1ccc(Nc2nc3ccccc3nc2Nc2ccc(Br)cc2)cc1 [MMV007224] | 6.56 | 0.714 | 0.709 | – | 6.54 | 6.44 | 6.55 | 6.40 | –
10 | Cc1ccc(Cn2c(N3CCC(C(=O)NCc4cccs4)CC3)nc3ccccc32)cc1 [MMV007564] | 6.41 | 0.342 | 0.867 | – | 6.30 | 6.17 | 6.24 | 6.32 | –
11 | Cc1c(C)n(Cc2ccc(F)cc2)c2ccc(C(=O)NCc3ccco3)cc12 [MMV008149] | 7.05 | 1.63 | 1.06 | – | 6.09 | 6.45 | 6.11 | 5.56 | 6.31
12 | OC(CNC1CCCCC1)Cn1c2ccccc2c2ccccc21 (stereo not shown) [MMV009063] | 6.73 | 0.364 | 0.281 | – | 6.90 | 6.33 | 6.11 | – | –
13 | CCN(CC)S(=O)(=O)c1ccc(-c2csc(Nc3ccc(C)c(C)c3)n2)cc1 [MMV009108] | 6.43 | 0.929 | 0.851 | – | 6.42 | 6.12 | 6.03 | 5.95 | –
14 | COC(=O)c1ccc(C2C3=C(O)CC(c4ccc(F)cc4)CC3=Nc3ccccc3N2C(=O)c2ccccc2)cc1 (stereo not shown) [MMV011438] | 6.82 | 0.655 | 0.187 | – | 6.19 | 6.64 | 6.37 | 6.29 | –
15 | Nc1ccc(-c2nc3cc(Oc4ccc(Oc5ccc6[nH]c(-c7ccc(N)cc7)nc6c5)cc4)ccc3[nH]2)cc1 [MMV011895] | 6.59 | 0.431 | 0.24 | – | 6.55 | 6.77 | 6.80 | – | –
